US4300557A, “Method for treating intraocular malignancies” (The United States of America as represented by the …, priority 1980, dated 1981)
Like-named read-outs stand apart in the source and are kept apart here.

Legend:
[1] = Solubility and stability of BCNU in vehicles (statements); format: physicochemical
[2] = Release of BCNU from silicone balloons into water; format: physicochemical
Procedure: Into one balloon prepared as in Example 1 was injected 0.15 ml. of 1% ethanol containing 0.6 mg. of BCNU and into a second balloon 0.15 ml. of 10% ethanol containing 0.5 mg of BCNU.
Each balloon was placed in a scintillation vial containing 5 ml of water and shaken at 37° C. in an automatic shaker. At specified time intervals, the aqueous liquid was removed from the vials containing the balloons. The amount of BCNU dissolved in the water was determined by spectroscopic analysis (absorbance at 232 nm). The water in each scintillation vessel was replaced with 5 ml. of fresh water. […] Results for both ethanolic solutions were as in FIG. 2. (- - -).
BCNU (7.5 mg/0.15 ml sesame oil) was injected into a silicone balloon which was placed in a flask with 5 ml of distilled water and shaken in an automatic shaker at 37° C. The procedure of Example 3(a) was repeated for as many time as positive absorption at 232 nm was recorded. When the experiment had to be interrupted overnight, the dried silicone balloon containing BCNU in sesame oil was stored at -15° C.
BCNU in absolute ethanol solution (13 mg/0.15 ml, 20 mg/0.15 ml, and 60 mg/0.15 ml) was injected in each of three silicone balloons. Release of BCNU from the balloon was followed as in Example 3. Results of this experiment are shown in FIG. 3, in which (--. --. --.) represents data for the solution containing 13 mg of BCNU, (- - -) the solution containing 20 mg and (--) the solution containing 60 mg. A sharp drop in the BCNU release rate after 3-4 hours, indicated by the arrow in the Figure, is correlated with diffusion of all of the ETOH from the balloons.

[3] = cited from earlier work
[4] = cited from earlier work; remark: listed apart in the source
E. coli = assay: Microbiological assay of BCNU: inhibition of E. coli in agar plates; format: cell-based
Procedure: BCNU activity was evaluated by placing a silicone balloon containing BCNU in 0.2 ml of ethanol in a gelled agar plate seeded with E. coli (10^6 colonies/ml). The balloon was covered with a layer of seeded agar. The culture was incubated overnight at 35° C. and the zone of inhibition was measured. The balloons were transferred daily to new plates and the procedure repeated as long as activity was detected. The diameters of the zones of inhibition were compared with a standard semilogarythmic plot obtained using known amount of BCNU absorbed in filter paper about the size of the balloons. […] In control experiments with balloons filled with 0.2 ml of ethanol no inhibition of E. coli was observed. After a single overnight incubation, all of the alcohol had diffused from the balloon.
The smaller zone was very clear, and probably totally free of bacterial growth. The larger one was distinct, but had some diffuse bacterial growth. […] The microbiological assay is a useful test of cytotoxic activity of the implants, but the results are only semiquantitative, owing to simultaneous decomposition and diffusion of BCNU.
A 10 mg sample of solid was placed in a 7-mm-diameter reservoir made of two silicone membranes (0.1 mm thick) separated by a silicone rubber ring spacer (1.0 mm wide×1.5 mm thick) and glued with silicone adhesive. The sandwich-type silicone device containing 10 mg of solid BCNU was imbedded in agar plates seeded with E. coli and incubated repeatedly as in Example 5(a).

O=NN(CCCl)C(=O)NCCCl [BCNU, 1,3-bis-(2-chloroethyl)-1-nitrosourea]
solubility in absolute ethanol ([1]; absolute ethanol as solvent for BCNU): excellent solvent for BCNU | solubility in sesame oil ([1]; sesame oil): fairly soluble | stability in sesame oil ([1]; sesame oil): relatively stable | rate of BCNU release from silicone balloons into water ([2]; 1% or 10% ethanol, 37° C.): rapidly decreasing rate | BCNU release rate after alcohol depletion, comparison of the three balloons ([2]; 13, 20 and 60 mg/0.15 ml absolute ethanol): about the same for the three balloons | depletion of BCNU from silicone microballoons ([2]; BCNU in sesame oil): depleted rather rapidly | rate of BCNU release from silicone microballoons into water ([2]; BCNU in sesame oil, 37° C.): variable rate | BCNU remaining inside balloons after alcohol depletion ([2]; absolute ethanol): essentially pure BCNU remained inside the balloons | time of sharp drop in the BCNU release rate ([2]; absolute ethanol, 13, 20 and 60 mg/0.15 ml, 37° C.): 3 to 4 h | rate of BCNU diffusion from balloon into water after alcohol depletion ([2]; absolute ethanol, after the alcohol has left): relatively constant rate | duration of BCNU release ([2]; balloon containing the largest amount (60 mg/0.15 ml absolute ethanol)): released it over the longest time | reported half-life of BCNU in water ([3]; Montgomery et al., J. Med. Chem. 1967): 5.08 h | reported half-life of BCNU in water ([3]; Schmidt et al., supra): 2.33 h | Decomposition of BCNU in water ([3]; in water, of the order of): 140 to 305 min | degradation in aqueous media [4]: degrades rapidly in aqueous media | depletion of drug activity, solid BCNU in sandwich-type silicone device (E. coli; 10 mg solid BCNU versus 10 mg BCNU in 0.2 ml ethanol in balloon): depletion of drug activity similar to that obtained with 10 mg BCNU in 0.2 ml ethanol in a silicone balloon | activity in the seventh incubation (E. coli; 30 and 40 mg BCNU in 0.2 ml ethanol): zero activity | activity in consecutive incubations (E. coli; 30 and 40 mg BCNU in 0.2 ml ethanol, daily incubations at 35° C.): comparable activity for six consecutive incubations | duration of inhibition of growth of E. coli cultures (E. coli; 30 or 40 mg BCNU in ethanol, silicone microballoons): 6 days | zones of inhibition (E. coli; BCNU in 0.2 ml ethanol, balloons, overnight 35° C.): two concentric and distinct zones of inhibition | BCNU remaining inside balloons after first incubation in agar (E. coli; BCNU in ethanol): essentially pure BCNU remains inside the balloons | BCNU content of balloons after first night's incubation (E. coli; BCNU in ethanol, after first overnight incubation): ~100% | inhibitory activity versus filter paper impregnated with known amounts of BCNU (E. coli; ethanolic solutions in silicone microballoons): unimpaired
